Assay results from patent US11970466B1, “4-((5-(3-fluorophenyl)-4-phenyl-4H-1,2,4-triazol-3-ylthio)methyl)benzoic acid as an antimicrobial compound” (KING FAISAL UNIVERSITY, priority 2023, dated 2024).

How the values were obtained:
Type in all cases: cell-based
Bacillus Cereus = assay: Agar plate disc-diffusion, antibacterial inhibition zone; conditions: Bacillus Cereus (Gram positive), nutrient agar, 37° C., 48 hours
Experimental: (§1) The agar plate disc-diffusion method was applied. […] The discs were then placed onto the surface of agar plates (nutrient agar for bacteria and Sabouraud's dextrose agar for fungi) seeded with the test organism. Each plate contained 15 mL of the agar medium, previously seeded with 0.2 mL of the broth culture of each organism pregrown for 18 hours. The plates were incubated at 37° C. for 48 hours, and 72 hours for fungi. The inhibition zones were measured in mm. Discs impregnated with DMSO were used as a control, and its inhibition zone was subtracted from the tested compound actual inhibition zone.

Pseudomonas aeruginosa = assay: as above; conditions: Pseudomonas aeruginosa (Gram negative), nutrient agar, 37° C., 48 hours
Experimental: as §1

Staphylococcus aureus = assay: as above; conditions: Staphylococcus aureus (Gram positive), nutrient agar, 37° C., 48 hours
Experimental: as §1

Escherichia coli = assay: as above; conditions: Escherichia coli (Gram negative), nutrient agar, 37° C., 48 hours
Experimental: (§2) The agar plate disc-diffusion method was applied. Sterilized filter papers (6 mm in diameter) were wetted with 10 μL of a solution of 4-((5-(3-fluorophenyl)-4-phenyl-4H-1,2,4-triazol-3-ylthio)methyl)benzoic acid (III) to be tested, containing 10 mg/mL in DMSO, and the discs were allowed to air dry. The discs were then placed onto the surface of agar plates (nutrient agar for bacteria and Sabouraud's dextrose agar for fungi) seeded with the test organism. Each plate contained 15 mL of the agar medium, previously seeded with 0.2 mL of the broth culture of each organism pregrown for 18 hours. The plates were incubated at 37° C. for 48 hours, and 72 hours for fungi. The inhibition zones were measured in mm. Discs impregnated with DMSO were used as a control, and its inhibition zone was subtracted from the tested compound actual inhibition zone.

Aspergillus flavus = assay: Agar plate disc-diffusion, antifungal inhibition zone; conditions: Sabouraud's dextrose agar, 72 hours
Experimental: as §1

[1] = test system: Chrysosporium keratinophilum; assay: as above; conditions: Sabouraud's dextrose agar, 72 hours
Experimental: as §2

[2] = A = concentration of comp. = 10,000 μL
[3] = B = concentration of comp. = 30,000 μL
[4] = C = concentration of comp. = 50,000 μL

SMILES	inhibition zone (Bacillus Cereus; [2]) [mm]	inhibition zone (Bacillus Cereus; [3]) [mm]	inhibition zone (Bacillus Cereus; [4]) [mm]	inhibition zone (Pseudomonas aeruginosa; [2]) [mm]	inhibition zone (Pseudomonas aeruginosa; [3]) [mm]	inhibition zone (Pseudomonas aeruginosa; [4]) [mm]	inhibition zone (Staphylococcus aureus; [2]) [mm]	inhibition zone (Staphylococcus aureus; [3]) [mm]	inhibition zone (Staphylococcus aureus; [4]) [mm]	inhibition zone (Escherichia coli; [2]) [mm]	inhibition zone (Escherichia coli; [3]) [mm]	inhibition zone (Escherichia coli; [4]) [mm]	inhibition zone (Aspergillus flavus; [2]) [mm]	inhibition zone (Aspergillus flavus; [3]) [mm]	inhibition zone (Aspergillus flavus; [4]) [mm]	inhibition zone [1, 2] [mm]	inhibition zone [1, 3] [mm]	inhibition zone [1, 4] [mm]
O=C(O)c1cn(C2CC2)c2cc(N3CCNCC3)c(F)cc2c1=O [Cip., ciprofloxacin]	29	30	42	29	30	53	43	44	53	30	39	60	29	30	42	29	30	53
O=C(O)c1ccc(CSc2nnc(-c3cccc(F)c3)n2-c2ccccc2)cc1 [III, 4-((5-(3-fluorophenyl)-4-phenyl-4H-1,2,4-triazol-3-ylthio)methyl)benzoic acid]	26	28	40	22	26	37	19	25	35	28	36	50	24	26	35	23	27	41
